Assays:
[1] = system: cellules tumorales mammaires MCF-7; assay: Antiproliferative activity on growth of MCF-7 mammary tumour cells (DNA assay with DABA fluorimetry); format: cell-based; conditions: 10⁻⁵M; end of experiment J6; SVF medium; inhibition of DNA increase
Description: (§1) L'activité de la 1-(3'-trifluorométhyl 4'-nitrophényl) 4,4-diméthyl imidazoline 2,5-dione a été déterminée par la mesure de son activité antiproliférative sur la croissance de cellules tumorales mammaires MCF-7 et T 47-D.
(§2) Les lignées MCF-7 et T 47-D sont maintenues en culture en milieu SVF (1) à 37 °C en atmosphère humide contenant 5% CO₂. Les cellules à subconfluence sont récoltées par trypsination (trypsine 0,05%, EDTA 0,02%) puis rincées par centrifugation douce. Un échantillon des cellules en suspension est compté sur cellule de Malassez.
(§3) Les cellules resuspendues dans le milieu SVF sont ensemencées à raison de 30.000 cellules par puits dans des plaques multipuits (24 puits de 2,5 cm2). […]
(§4) L'ADN est dosé par une méthode fluorimétrique utilisant le DABA (Acide 3,5 diaminobenzoïque) (2) 150 microlitres de DABA sont ajoutés dans chaque puits; les plaques sont alors incubées 45 mn à 56°C, puis 1,5 ml d'HCl 1N sont ajoutés. La fluorescence est mesurée à l'aide de fluorimètre (longueur excitatrice : 400 nm, longueur d'onde d'émission : 500 nm). La quantité d'ADN par puits est évaluée par rapport à une gamme étalon obtenue en traitant dans les mêmes conditions un standard d'ADN du thymus de veau.

[2] = system: cellules tumorales mammaires T 47-D; assay: Antiproliferative activity on growth of T 47-D mammary tumour cells (DNA assay with DABA fluorimetry); format: cell-based; conditions: 10⁻⁵M; end of experiment J12; SVF medium; inhibition of DNA increase
Description: as §1, §2, §3, §4

CC1(C)NC(=O)N(c2ccc([N+](=O)[O-])c(C(F)(F)F)c2)C1=O [1-(3'trifluorométhyl 4'-nitrophényl) 4,4-diméthyl imidazoline 2,5-dione]
inhibe la croissance des cellules MCF-7 [1]: 30%
inhibe la croissance des cellules T 47-D [2]: 30%
